Assay results taken from patent publication US20020045780A1, “Biologically active spermidine analogues, pharmaceutical compositions and methods of treatment” (priority 1997, published 2002).
Counter-ions that a name gives are not always drawn. Like-named read-outs stand apart in the source and are kept apart here.

Legend:
L1210 cells [1] = experiment: L1210 growth inhibition, IC50 determination; assay type: cell-based, murine
Protocol: Murine L1210 leukemia cells (ATCC CCL 219) were maintained in logarithmic growth in RPMI-1640 medium containing 10% fetal calf serum or a semi-synthetic equivalent, NuSerum, 2% HEPES-MOPS buffer and 1 mM aminoguanidine.

[2] = system: polyamine transport apparatus; experiment: Competitive uptake determination: inhibition of [3H]spermidine transport into L1210 cells; assay type: cell-based, murine; details: analogue inhibition of spermidine transport
Protocol: The ability of the norspermidines, spermidines, homospermidines, 4,5- and 5,5-triamines to compete with radiolabeled SPD for uptake was evaluated (Table 1). The general trend is that the terminally alkylated triamines have higher Ki values than the unalkylated triamines and are thus less easily taken up by the cell. […] This is not completely true with the norspermidines and the 5,5 triamines. The relationship holds with methyl and ethyl but not for the propyl of the latter two systems. Finally, the number of methylenes separating the amines plays a role in determining polyamine uptake properties. In general the effectiveness with which the analogues compete for uptake is spermidines≈homospermidines>4,5 triamines>5,5 triamines>norspermidine.
The polyamine derivatives were studied for their ability to compete with [^3H]-SPD for uptake into L1210 cells [Bergeron et al, J. Med. Chem., Vol. 37, supra]. Lineweaver-Burk plots indicated a simple competitive inhibition with respect to SPD.

L1210 cells [3] = experiment: Polyamine pool analysis in L1210 cells; assay type: cell-based, murine; details: for activity at 100 µM / activity at 500 µM / activity at 2 µM / activity at 10 µM / activity at 15 µM / activity at 75 µM: Mus musculus, L1210, 48 h, % of untreated control; for Analogue: intracellular amount, 48 hours
Protocol: The following guidelines were adopted for studying the impact of the analogues on polyamine pools (Table 2). The measurements were made after a 48-hour exposure to the analogue, and two different concentrations of analogue were evaluated in each case.
(§1) The cells were washed twice with cold RPMI-1640, and the pellet was treated with 0.6 N HClO4 (1 ml/10^7 cells). Polyamine contents of the perchloric acid extracts were quantitated by HPLC of the DANSYL derivatives [Bergeron et al, J. Med. Chem., Vol. 37, supra].

[4] = system: ornithine decarboxylase (ODC); experiment: ODC activity in treated L1210 cells; assay type: cell-based, murine; details: L1210, 1 μM at 4 hours
Protocol: (§2) On the basis of these studies, it was elected to evaluate the impact of the triamines on ODC and AdoMetDC at 4 and 6 hours, respectively.
(§3) ODC and AdoMetDC activities were determined as ^14CO2 released from [^14C]-carboxyl-labeled L-ornithine [Seely et al, “Ornithine Decarboxylase (Mouse Kidney),” Methods Enzymol., Vol. 94, pages 158-161 (1983)] or S-adenosyl-L-methionine [Pegg et al, “S-Adenosylmethionine Decarboxylase (Rat Liver),” Methods Enzymol., Vol. 94, pages 234-239 (1983)], respectively. Included in each assay were untreated L1210 cells as controls, as well as cells treated with DEHSPM, a drug having a known reproducible effect on each enzyme, as positive controls.

[5] = system: S-adenosylmethionine decarboxylase (AdoMetDC); experiment: AdoMetDC activity in treated L1210 cells; assay type: cell-based, murine; details: L1210, 1 μM at 6 hours
Protocol: as §2, §3

[6] = system: spermidine/spermine acetyltransferase (SSAT); experiment: SSAT activity in treated L1210 cells; assay type: cell-based, murine; details: L1210, 10 μM at 48 hours (triamine analogues)
Excerpt: Spermidine/spermine N^1-acetyltransferase activity was based on quantitation of [^14C]-N^1-acetylspermidine formed by acetylation of SPD with [^14C] acetyl coenzyme A according to the method of Libby et al [Biochem. Pharmacol., Vol. 38, supra]. Cells treated with DENSPM were positive controls.

L1210 cells [7] = experiment: Metabolic transformation of polyamine analogues by L1210 cells; assay type: in vitro ADME, murine; details: 48 hours
Protocol: as §1

[8] = Mus musculus, L1210, 48 h, L1210, 48 hour exposure, read-out: IC50 48 hour
[9] = Mus musculus, L1210, 96 h, L1210, 96 hour exposure, read-out: IC50 96 hour

Structure (SMILES)	IC50 (L1210 cells [1]; [8])	IC50 (L1210 cells [1]; [9])	Ki [2]	activity at 100 µM (L1210 cells [3]; 100 μM, read-out: Put)	activity at 100 µM (L1210 cells [3]; 100 μM, read-out: Spd)	activity at 100 µM (L1210 cells [3]; 100 μM, read-out: Spm)	activity at 500 µM (L1210 cells [3]; 500 μM, read-out: Put)	activity at 500 µM (L1210 cells [3]; 500 μM, read-out: Spd)	activity at 500 µM (L1210 cells [3]; 500 μM, read-out: Spm)	Analogue (L1210 cells [3]; 100 μM)	Analogue (L1210 cells [3]; 500 μM)	ODC activity, percent of untreated control [4]	AdoMetDC activity, percent of untreated control [5]	SSAT activity, percent of untreated control [6]	N-Monodealkylation (result in words) (L1210 cells [7]; 100 μM analogue)	Parent drug as % of total drug in the cell (L1210 cells [7]; 100 μM analogue)	Parent drug in L1210 cells (L1210 cells [7]; 100 μM analogue)	further results
CCNCCCNCCCNCC [DENSPD, N^1,N^7-Diethylnorspermidine Trihydrochloride]	> 100 µM	10 µM	250 µM	0%	17%	74%	0%	6 to 15%	< 50%	3.67 nmol/10^6 cells	3.77 nmol/10^6 cells	80% of untreated control	45% of untreated control	780% of untreated control				Parent drug as % of total drug in the cell (L1210 cells [7]; 500 μM analogue): 90.7%; Parent drug in L1210 cells (L1210 cells [7]; 500 μM analogue): 3761 pmols/10^6
CNCCCCCNCCCCNC [DM(4,5), 2,7,13-Triazatetradecane Trihydrochloride]	2 to 6 µM	0.11 to 0.12 µM	21 µM									56% of untreated control	71% of untreated control	130% of untreated control				IC50 (L1210 cells [1]; L1210, 48 hour exposure, Trihydrochloride, read-out: IC50 48 hour): 2 µM; activity at 2 µM (L1210 cells [3]; 2 μM, read-out: Put): 0%; activity at 2 µM (L1210 cells [3]; 2 μM, read-out: Spd): 33%; activity at 2 µM (L1210 cells [3]; 2 μM, read-out: Spm): 112%; activity at 10 µM (L1210 cells [3]; 10 μM, read-out: Put): 0%; activity at 10 µM (L1210 cells [3]; 10 μM, read-out: Spd): 18%; activity at 10 µM (L1210 cells [3]; 10 μM, read-out: Spm): 111%; Analogue (L1210 cells [3]; 2 μM): 2.79 nmol/10^6 cells; Analogue (L1210 cells [3]; 10 μM): 5.36 nmol/10^6 cells; N-Monodealkylation (result in words) (L1210 cells [7]; 2 μM analogue): no N-demethylation; Parent drug as % of total drug in the cell (L1210 cells [7]; 2 μM analogue): 100%; Parent drug in L1210 cells (L1210 cells [7]; 2 μM analogue): 2790 pmols/10^6
CNCCCCCNCCCCCNC [DM(5,5), 2,8,14-Triazapentadecane Trihydrochloride]	15 µM	0.4 µM	133 µM									105% of untreated control	97% of untreated control	90% of untreated control				activity at 15 µM (L1210 cells [3]; 15 μM, read-out: Put): 0%; activity at 15 µM (L1210 cells [3]; 15 μM, read-out: Spd): 33%; activity at 15 µM (L1210 cells [3]; 15 μM, read-out: Spm): 115%; activity at 75 µM (L1210 cells [3]; 75 μM, read-out: Put): 0%; activity at 75 µM (L1210 cells [3]; 75 μM, read-out: Spd): 20%; activity at 75 µM (L1210 cells [3]; 75 μM, read-out: Spm): 101%; Analogue (L1210 cells [3]; 15 μM): 2.56 nmol/10^6 cells; Analogue (L1210 cells [3]; 75 μM): 3.61 nmol/10^6 cells; N-Monodealkylation (result in words) (L1210 cells [7]; 15 μM analogue): no N-demethylation; Parent drug as % of total drug in the cell (L1210 cells [7]; 15 μM analogue): 100%; Parent drug in L1210 cells (L1210 cells [7]; 15 μM analogue): 2560 pmols/10^6
CNCCCCNCCCCNC [DMHSPD, N^1,N^9-Dimethylhomospermidine Trihydrochloride]	> 100 µM	0.9 µM	5.5 µM	0%	3%	106%	0%	0%	106%	5.51 nmol/10^6 cells	5.85 nmol/10^6 cells	20% of untreated control	86% of untreated control	510% of untreated control	no N-demethylation	100%	5500 pmols/10^6	
CNCCCNCCCNC [DMNSPD, N^1,N^7-Dimethylnorspermidine Trihydrochloride]	> 100 µM	3.5 to 6 µM	60 µM	0%	9%	58%	0%	6 to 15%	< 50%	5.00 nmol/10^6 cells	5.51 nmol/10^6 cells	17% of untreated control	41% of untreated control	250% of untreated control	no N-demethylation	100%	5000 pmols/10^6	
CNCCCCNCCCNC [DMSPD, N^1,N^8-Dimethylspermidine Trihydrochloride]	> 100 µM	1.5 to 1.8 µM	5.1 µM	0%	5%	58%	0%	0%	54%	4.96 nmol/10^6 cells	4.89 nmol/10^6 cells		68% of untreated control	270% of untreated control	no N-demethylation	100%	5000 pmols/10^6	ODC activity, percent of untreated control ([4]; Trihydrochloride): 22% of untreated control
CCCNCCCCCNCCCCNCCC [DP(4,5), 4,9,15-Triazaoctadecane Trihydrochloride]	~100 µM	< 2 µM	75 µM	0%	40%	119%	0%	31%	121%	1.40 nmol/10^6 cells	2.42 nmol/10^6 cells	83% of untreated control	86% of untreated control	80% of untreated control		69.7%	1325 pmols/10^6	IC50 (L1210 cells [1]; L1210, 96 hour exposure, Trihydrochloride, read-out: IC50 96 hour): 1 to 1.4 µM; Elaboration to tetraamine (result in words) (L1210 cells [7]; 100 μM analogue): no elaboration of N-Monoalkyl [5,4]
